These results are taken from ChEMBL document CHEMBL5230157, “The natural anthraquinone dye purpurin exerts antibacterial activity by perturbing the FtsZ assembly” (Bioorg Med Chem, 2021).

For this experiment, the target named is T1, Cell division protein FtsZ (Bacillus subtilis, UniProt A5Z1V5).
T1 sequence (A5Z1V5 whole entry): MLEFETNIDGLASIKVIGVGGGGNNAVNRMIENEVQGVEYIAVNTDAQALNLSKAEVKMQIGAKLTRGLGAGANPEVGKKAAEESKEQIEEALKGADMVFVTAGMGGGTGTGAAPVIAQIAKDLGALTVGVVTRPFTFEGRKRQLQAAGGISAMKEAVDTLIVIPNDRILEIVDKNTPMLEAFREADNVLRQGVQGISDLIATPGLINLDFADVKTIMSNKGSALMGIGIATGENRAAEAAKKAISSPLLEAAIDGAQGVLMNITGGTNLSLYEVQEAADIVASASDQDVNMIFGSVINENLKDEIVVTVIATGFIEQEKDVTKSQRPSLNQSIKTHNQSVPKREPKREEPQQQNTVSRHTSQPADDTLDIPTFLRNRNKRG
In words: Binding affinity to Bacillus subtilis FtsZ assessed as dissociation constant of intrinsic tryptophan quenching incubated for 30 mins by double reciprocal plot analysis.

On to `CC1=CC(=O)c2c(O)cccc2C1=O` [PLUMBAGIN], for which the Kd amounted to 15.8 µM.
